Data as given in ChEMBL document CHEMBL3885881, “DrugMatrix”.

Organism: Rattus norvegicus
Assay type: toxicity, organism-based, Sprague-Dawley
Settings: in vivo, po, 24 h, route oral GAVAGE, time 1 day, vehicle 100 % WATER; for ABSOLUTE BASOPHIL / ABSOLUTE EOSINOPHIL / ABSOLUTE LYMPHOCYTE / ABSOLUTE MONOCYTE / BASOPHIL / EOSINOPHIL / ERYTHROCYTE COUNT / HEMATOCRIT / HEMOGLOBIN / LEUKOCYTE COUNT / LYMPHOCYTE / MEAN CORPUSCULAR HEMOGLOBIN / MEAN CORPUSCULAR VOLUME / MONOCYTE / NEUTROPHIL / PLATELET COUNT: tissue Blood; for ALANINE AMINOTRANSFERASE / ALBUMIN / ALKALINE PHOSPHATASE / ASPARTATE AMINOTRANSFERASE / BLOOD UREA NITROGEN / CARBON DIOXIDE / CHLORIDE / CHOLESTEROL / CREATINE PHOSPHOKINASE / CREATININE / GLUCOSE / LACTATE DEHYDROGENASE / LIPASE / PHOSPHORUS / POTASSIUM / SODIUM / TOTAL BILIRUBIN / TOTAL PROTEIN / URIC ACID: tissue Plasma
[1] = 0 mg/kg, vehicle control, dose level Control

Description: DrugMatrix - Regimen: Single

Question: Which results are given for `CCOC(=O)N1CCC(=C2c3ccc(Cl)cc3CCc3cccnc32)CC1` [LORATADINE]?
Answer: ABSOLUTE BASOPHIL [1]: 63.3 cells/µL; ABSOLUTE EOSINOPHIL [1]: 66.7 cells/µL; ABSOLUTE LYMPHOCYTE [1]: 8010 cells/µL; ABSOLUTE MONOCYTE [1]: 240 cells/µL; BASOPHIL [1]: 0.6%; EOSINOPHIL [1]: 0.6%; ERYTHROCYTE COUNT [1]: 6.25 x10E6/uL; HEMATOCRIT [1]: 40.47%; HEMOGLOBIN [1]: 12.83 G/DL; LEUKOCYTE COUNT [1]: 10.19 x10E3/uL; LYMPHOCYTE [1]: 78.7%; MEAN CORPUSCULAR HEMOGLOBIN [1]: 20.53 pg; MEAN CORPUSCULAR VOLUME [1]: 64.67 fL; MONOCYTE [1]: 2.5%; NEUTROPHIL [1]: 17.07%; PLATELET COUNT [1]: 1297 x10E3/uL; ALANINE AMINOTRANSFERASE [1]: 32.67 u/L; ALBUMIN [1]: 3.9 G/DL; ALKALINE PHOSPHATASE [1]: 374 u/L; ASPARTATE AMINOTRANSFERASE [1]: 64.33 u/L; BLOOD UREA NITROGEN [1]: 14 mg/dL; CARBON DIOXIDE [1]: 45.67 mmol/L; CHLORIDE [1]: 103 MEQ/L; CHOLESTEROL [1]: 82.67 mg/dL; CREATINE PHOSPHOKINASE [1]: 216.33 u/L; CREATININE [1]: 0.17 mg/dL; GLUCOSE [1]: 161.33 mg/dL; LACTATE DEHYDROGENASE [1]: 103.67 u/L; LIPASE [1]: 8.67 u/L; PHOSPHORUS [1]: 11 mg/dL; POTASSIUM [1]: 6.83 MEQ/L; SODIUM [1]: 144.67 MEQ/L; TOTAL BILIRUBIN [1]: 0.27 mg/dL; TOTAL PROTEIN [1]: 6.27 G/DL; URIC ACID [1]: 0.67 mg/dL; ABSOLUTE BASOPHIL (2000 mg/kg, dose level High): 63.3 cells/µL; ABSOLUTE EOSINOPHIL (2000 mg/kg, dose level High): 56.7 cells/µL; ABSOLUTE LYMPHOCYTE (2000 mg/kg, dose level High): 5990 cells/µL; ABSOLUTE MONOCYTE (2000 mg/kg, dose level High): 100 cells/µL; BASOPHIL (2000 mg/kg, dose level High): 0.97%; EOSINOPHIL (2000 mg/kg, dose level High): 0.77%; ERYTHROCYTE COUNT (2000 mg/kg, dose level High): 7.26 x10E6/uL; HEMATOCRIT (2000 mg/kg, dose level High): 47.47%; HEMOGLOBIN (2000 mg/kg, dose level High): 14.97 G/DL; LEUKOCYTE COUNT (2000 mg/kg, dose level High): 6.8 x10E3/uL; LYMPHOCYTE (2000 mg/kg, dose level High): 87.87%; MEAN CORPUSCULAR HEMOGLOBIN (2000 mg/kg, dose level High): 20.6 pg; MEAN CORPUSCULAR VOLUME (2000 mg/kg, dose level High): 65.27 fL; MONOCYTE (2000 mg/kg, dose level High): 1.5%; NEUTROPHIL (2000 mg/kg, dose level High): 8.47%; PLATELET COUNT (2000 mg/kg, dose level High): 1455 x10E3/uL; ALANINE AMINOTRANSFERASE (2000 mg/kg, dose level High): 19.67 u/L; ALBUMIN (2000 mg/kg, dose level High): 4.17 G/DL; ALKALINE PHOSPHATASE (2000 mg/kg, dose level High): 348 u/L; ASPARTATE AMINOTRANSFERASE (2000 mg/kg, dose level High): 59.33 u/L; BLOOD UREA NITROGEN (2000 mg/kg, dose level High): 11.33 mg/dL; CARBON DIOXIDE (2000 mg/kg, dose level High): 39.67 mmol/L; CHLORIDE (2000 mg/kg, dose level High): 104 MEQ/L; CHOLESTEROL (2000 mg/kg, dose level High): 66.33 mg/dL; CREATINE PHOSPHOKINASE (2000 mg/kg, dose level High): 336 u/L; CREATININE (2000 mg/kg, dose level High): 0.3 mg/dL; GLUCOSE (2000 mg/kg, dose level High): 156 mg/dL; LACTATE DEHYDROGENASE (2000 mg/kg, dose level High): 112.67 u/L; LIPASE (2000 mg/kg, dose level High): 8.33 u/L; PHOSPHORUS (2000 mg/kg, dose level High): 12.4 mg/dL; POTASSIUM (2000 mg/kg, dose level High): 7.03 MEQ/L; SODIUM (2000 mg/kg, dose level High): 145.67 MEQ/L; TOTAL BILIRUBIN (2000 mg/kg, dose level High): 0.3 mg/dL; TOTAL PROTEIN (2000 mg/kg, dose level High): 6.8 G/DL; URIC ACID (2000 mg/kg, dose level High): 0.8 mg/dL
